{
  "source": "patent US20170234853A1",
  "about": "“METHOD FOR DETERMINING THE STRUCTURAL PROFILE OF A FIBRIN CLOT REFLECTING THE STABILITY THEREOF, IN ORDER TO PREDICT THE RISK OF BLEEDING, THROMBOSIS OR RETHROMBOSIS” (DIAGNOSTICA STAGO, priority 2014, published 2017)",
  "system": "fibrin clot",
  "assay": "Structural profile of fibrin clot, Protocol C on STA-R with tissue factor and plasminogen activator (TF+t-PA)",
  "type": "biochemical",
  "experimental": "Protocol C (With t-PA, Method on STA-R® with Tissue Factor and Plasminogen Activator):\nTo 8 cuvettes of the STA-R® Evolution Expert Series automated device (Stago), are added, simultaneously by the instrument: • 200 μl of a sample of pure plasma, • 50 μl of a [TF 2 to 5 pM final concentration+PL 4 μM final concentration+tPA 0.1 to 0.2 μg/ml final concentration] mixture.\nThe automated device agitates by means of the arm, and carries out an incubation for 300 seconds at 37° C.\nIt then adds 50 μl of CaCl2 at a final concentration of 16.7 mM, and agitates by means of the needle of the initiating reagent.\nFinally, the automated device measures the number of protofibrils at the 2 wavelengths of 540 nm and 780 nm as a function of time for 30 minutes.\nTo 8 cuvettes of the STA-R® Evolution Expert Series automated device (Stago), are added, simultaneously by the instrument: • 200 μl of sample of pure plasma from 9 patients with normal hemostatis results, of a frozen plasma deficient in PAI-1, of 3 control plasmas at 0, 20 and 40 AU/ml of PAI-1, of a protein S-depleted plasma, of a TFPI-depleted plasma and of 3 plasmas with an overload of rivaroxaban at 0, 100 and 200 ng/ml, • 50 μl of a [TF 2 to 5 pM final concentration+PL 4 μM final concentration+t-PA 150 ng/ml] mixture.\nIt then adds 50 μl of CaCl2 at a final concentration of 16.7 mM, and agitates by means of the needle.",
  "data": [
    {"smiles": "O=C(NC[C@H]1CN(c2ccc(N3CCOCC3=O)cc2)C(=O)O1)c1ccc(Cl)s1", "note": "[rivaroxaban]", "values": [
      {"measurement": "downward slope of the protofibril plateau", "setting": "plasma containing rivaroxaban, TF + t-PA 150 ng/ml", "value": "all the greater the faster the lysis"},
      {"measurement": "protofibril plateau (duration), reflecting the stability of the clot", "setting": "plasmas with an overload of rivaroxaban at 0, 100 and 200 ng/ml, TF 2 to 5 pM, t-PA 150 ng/ml, 30 minutes", "value": "shortened proportionally to the concentration"}
    ]}
  ]
}
